ChEMBL document CHEMBL1201862, “PubChem BioAssay data set” (2004)
Where a name gives a salt, the structure may show the parent alone. Calls of active or inactive are those of the source.

Experiments:
Cytochrome P450 1A2 = target: T1, Cytochrome P450 1A2 (Homo sapiens, UniProt P05177);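 further: PubChem cytochrome P450 panel assay, CYP1A2 panel member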
T1 sequence (P05177 whole entry): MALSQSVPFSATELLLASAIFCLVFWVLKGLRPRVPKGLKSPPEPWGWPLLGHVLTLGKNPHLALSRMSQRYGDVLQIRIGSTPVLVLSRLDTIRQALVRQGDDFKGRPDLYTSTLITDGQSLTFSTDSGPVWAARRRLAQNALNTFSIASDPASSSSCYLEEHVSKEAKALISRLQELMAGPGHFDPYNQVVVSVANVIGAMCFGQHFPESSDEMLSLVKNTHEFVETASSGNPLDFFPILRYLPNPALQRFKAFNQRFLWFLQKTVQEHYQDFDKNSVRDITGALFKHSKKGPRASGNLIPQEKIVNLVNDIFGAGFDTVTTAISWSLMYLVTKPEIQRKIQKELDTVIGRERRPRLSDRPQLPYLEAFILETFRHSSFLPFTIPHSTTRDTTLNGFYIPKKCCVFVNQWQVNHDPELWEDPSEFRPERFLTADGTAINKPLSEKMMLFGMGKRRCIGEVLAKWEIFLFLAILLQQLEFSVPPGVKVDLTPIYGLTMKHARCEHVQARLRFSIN

Cytochrome P450 3A4 = Cytochrome P450 3A4 (Homo sapiens, UniProt P08684);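 further: CYP3A4 tested as one member of a cytochrome P450 panel screen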
INS1 = test: beta cell apoptosis inhibitors, cytokine rescue, dose response, luminescence, retest (AID 449756); assay type: functional, cell-based; conditions: Rattus norvegicus;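 further: cell death triggered by IL-1 beta plus TNF-alpha plus IFN-gamma mixture; protective hits raise ATP signal compared with cytokine alone wells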
Vero = test: cells; assay type: functional; conditions: Chlorocebus sabaeus
[1] = target: T2, Carboxy-terminal domain RNA polymerase II polypeptide A small phosphatase 1 (Homo sapiens, UniProt Q9GZU7); test: inhibitors of CTDSP1, concentration-response testing, biochemical assay, absorbance-based, actives from ultra-high-throughput screening (AID 540297); assay type: functional
T2 sequence (Q9GZU7 whole entry): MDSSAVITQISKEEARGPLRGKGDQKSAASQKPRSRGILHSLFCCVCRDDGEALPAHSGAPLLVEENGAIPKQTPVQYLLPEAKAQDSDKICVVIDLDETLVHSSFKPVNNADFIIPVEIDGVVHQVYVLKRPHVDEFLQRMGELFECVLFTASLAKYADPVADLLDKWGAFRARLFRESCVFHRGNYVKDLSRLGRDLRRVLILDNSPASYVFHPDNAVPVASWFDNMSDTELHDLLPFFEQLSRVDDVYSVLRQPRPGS

[2] = target: DNA dC->dU-editing enzyme APOBEC-3G (Homo sapiens, UniProt Q9HC16); assay type: functional;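 further: Dose-response counterscreen measuring inhibition of APOBEC3G DNA deaminase activity, run while confirming APOBEC3A inhibitors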
[3] = target: DNA dC->dU-editing enzyme APOBEC-3A (Homo sapiens, UniProt P31941); test: Dose Response confirmation of small molecule APOBEC3A DNA Deaminase Inhibitors via a fluorescence-based single-stranded DNA deaminase assay. [Related pubchem assays (depositor defined):AID493011, AID493024]; assay type: functional
Coagulation factor XII = target: T3, Coagulation factor XII (Homo sapiens, UniProt P00748); assay type: functional;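 further: activated factor XIIa alpha cleaving a fluorogenic AMC peptide substrate; inhibitor potency from loss of enzyme activity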
T3 sequence (P00748 whole entry): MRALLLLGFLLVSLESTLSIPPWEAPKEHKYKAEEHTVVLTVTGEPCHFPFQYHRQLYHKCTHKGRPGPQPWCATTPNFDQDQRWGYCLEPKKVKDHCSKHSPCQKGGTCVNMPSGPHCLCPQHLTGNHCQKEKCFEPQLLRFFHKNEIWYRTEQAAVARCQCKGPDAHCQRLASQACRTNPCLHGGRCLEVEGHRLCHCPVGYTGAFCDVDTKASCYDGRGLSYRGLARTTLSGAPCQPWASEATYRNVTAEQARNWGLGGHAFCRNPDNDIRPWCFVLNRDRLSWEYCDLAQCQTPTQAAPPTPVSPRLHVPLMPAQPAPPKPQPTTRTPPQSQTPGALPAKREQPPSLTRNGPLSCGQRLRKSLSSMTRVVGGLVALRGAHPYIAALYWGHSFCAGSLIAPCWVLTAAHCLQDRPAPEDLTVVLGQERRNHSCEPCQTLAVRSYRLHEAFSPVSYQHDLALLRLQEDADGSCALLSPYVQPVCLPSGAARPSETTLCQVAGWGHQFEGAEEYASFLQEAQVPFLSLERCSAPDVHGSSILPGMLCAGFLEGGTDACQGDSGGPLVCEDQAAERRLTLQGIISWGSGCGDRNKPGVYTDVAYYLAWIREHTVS

[4] = target: T4, Alkaline phosphatase, tissue-nonspecific isozyme (Homo sapiens, UniProt P05186); test: human TNAP enzyme inhibitors, SAR follow-up, biochemical, luminescent, dose response (AID 1056)
T4 sequence (P05186 whole entry): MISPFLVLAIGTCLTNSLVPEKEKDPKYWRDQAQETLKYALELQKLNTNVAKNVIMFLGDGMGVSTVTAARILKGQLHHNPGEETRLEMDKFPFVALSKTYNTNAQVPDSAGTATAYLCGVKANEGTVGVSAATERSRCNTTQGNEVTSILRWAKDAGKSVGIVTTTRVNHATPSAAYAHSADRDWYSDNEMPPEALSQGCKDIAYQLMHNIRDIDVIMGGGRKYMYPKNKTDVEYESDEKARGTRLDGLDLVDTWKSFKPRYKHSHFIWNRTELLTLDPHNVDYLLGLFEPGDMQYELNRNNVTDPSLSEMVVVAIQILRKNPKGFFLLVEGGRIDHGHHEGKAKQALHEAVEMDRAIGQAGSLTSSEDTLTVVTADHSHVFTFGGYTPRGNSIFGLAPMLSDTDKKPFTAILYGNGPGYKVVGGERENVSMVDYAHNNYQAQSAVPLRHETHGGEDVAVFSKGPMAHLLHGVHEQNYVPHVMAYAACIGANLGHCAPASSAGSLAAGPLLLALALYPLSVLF

Chain of Cytochrome P450 3A4 (P08684 whole entry): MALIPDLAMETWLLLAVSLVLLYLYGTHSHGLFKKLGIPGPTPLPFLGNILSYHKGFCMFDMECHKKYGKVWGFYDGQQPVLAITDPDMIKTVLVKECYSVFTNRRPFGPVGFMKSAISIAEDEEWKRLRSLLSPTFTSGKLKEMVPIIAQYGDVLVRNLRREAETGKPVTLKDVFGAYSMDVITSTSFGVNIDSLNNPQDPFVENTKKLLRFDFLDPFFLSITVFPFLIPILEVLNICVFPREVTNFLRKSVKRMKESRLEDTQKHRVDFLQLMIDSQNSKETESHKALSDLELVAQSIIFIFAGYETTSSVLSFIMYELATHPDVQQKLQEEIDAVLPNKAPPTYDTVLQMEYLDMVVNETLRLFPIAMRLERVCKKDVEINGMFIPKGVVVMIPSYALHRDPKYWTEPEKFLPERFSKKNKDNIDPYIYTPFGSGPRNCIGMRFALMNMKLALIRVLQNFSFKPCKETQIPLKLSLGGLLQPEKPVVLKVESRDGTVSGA
Chain of DNA dC->dU-editing enzyme APOBEC-3A (P31941 whole entry): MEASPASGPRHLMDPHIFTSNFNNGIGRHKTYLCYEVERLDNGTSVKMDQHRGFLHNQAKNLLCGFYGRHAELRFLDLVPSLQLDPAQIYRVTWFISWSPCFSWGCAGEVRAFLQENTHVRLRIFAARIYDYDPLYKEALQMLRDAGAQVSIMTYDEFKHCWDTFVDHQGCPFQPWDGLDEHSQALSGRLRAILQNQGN
Chain of DNA dC->dU-editing enzyme APOBEC-3G (Q9HC16 whole entry): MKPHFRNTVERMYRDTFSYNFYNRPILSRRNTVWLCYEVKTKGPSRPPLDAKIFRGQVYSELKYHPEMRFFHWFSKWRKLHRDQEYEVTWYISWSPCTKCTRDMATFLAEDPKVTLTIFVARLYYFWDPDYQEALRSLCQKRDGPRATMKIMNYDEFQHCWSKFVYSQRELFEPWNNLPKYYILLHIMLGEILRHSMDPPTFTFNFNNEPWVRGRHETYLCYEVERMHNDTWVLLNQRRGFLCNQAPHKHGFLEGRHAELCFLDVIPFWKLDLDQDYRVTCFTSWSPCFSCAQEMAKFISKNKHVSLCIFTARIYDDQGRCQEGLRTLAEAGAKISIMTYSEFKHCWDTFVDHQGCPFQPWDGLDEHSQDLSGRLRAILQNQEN

SMILES | AC50 (Cytochrome P450 1A2) | AC50 (Cytochrome P450 3A4) | IC50 [1] | other results
O=C(Nc1ccccc1)N1CCC2(CC1)CCN(C(=O)c1cccc(F)c1)CC2 | 10 µM (inconclusive) | inconclusive |  | 
Cn1cccc1C(=O)N1CCC2(CC1)CCN(C(c1ccccc1)c1ccccc1)CC2 | 5.01 µM (inconclusive) | inconclusive |  | 
COc1ccc(C2=Nn3c(nnc3-c3ccccc3Cl)SC2)cc1OC1CCCC1 |  |  |  | AC50 (INS1): 42.7 µM (active); CC50 (Vero): 10.7 µM (active)
O=C(Nc1ccc(S(=O)(=O)Nc2nccs2)cc1)c1nn(-c2ccccc2)ccc1=O |  |  | 3.52 µM (active) | 
COc1ccc(CN2CCNCC2)c(OC)c1OC [TRIMETAZIDINE DIHYDROCHLORIDE] |  |  | 8.85 µM (active) | IC50 [2]: 7.19 µM (active); IC50 [3]: 8.26 µM (active)
O=C(Nc1ccccc1Cl)C1CC(=O)N(c2ccccc2)C1 (stereo unspecified) |  |  |  | IC50 (Coagulation factor XII): > 50 µM (inactive)
N#Cc1cccc(NC(=O)N2CCC3(CC2)CCN(C(=O)c2cccc(F)c2)CC3)c1 |  | inconclusive |  | 
CCOc1ccc(C(C)(C)C)cc1S(=O)(=O)Nc1cccnc1 |  |  |  | IC50 [4]: 12.5 µM (active)
O=c1c(-c2ccc(Cl)cc2)nc2cnc(N3CCOCC3)nc2n1CCc1ccccc1 | 2 µM (inconclusive) | inconclusive |  | 
CC1CN(C2=CC(=[N+]3CCOCC3)CC(C)(C)C2)CC(C)O1 (stereo unspecified) |  |  | 1.83 µM (active) | 
